In US20080020995A1, “Use of Cyclodextrin Complexes Containing Lipoic Acid” (priority 2004, published 2008):

Assay: Storage stability test of blend formulation (α-lipoic acid content)
Type: physicochemical
Settings: absence of air and light
Protocol: First, a blend formulation of the following composition was produced: […]
50 g of creatine monohydrate; 20 g of citric acid; 5.0 g of sodium carbonate; 15 g of sodium bicarbonate; 5.0 g of lemon aroma; 0.5 g of aspartame; 0.5 g of acesulfame K; 4.0 g of magnesium hydroxide
To this blend were added 0.2% by weight of α-lipoic acid and 1.67% by weight of a racemic α-lipoic acid/α-cyclodextrin complex, respectively. The preparations obtained in each case were packaged in the absence of air and light and stored at 20° C. and 40° C.

α-Lipoic acid content of the blend (20° C., 1 month): 0.19 % by weight
α-Lipoic acid content of the blend (20° C., 2 months): 0.17 % by weight
α-Lipoic acid content of the blend (20° C., 3 months): 0.16 % by weight
α-Lipoic acid content of the blend (20° C., 6 months): 0.14 % by weight
α-Lipoic acid content of the blend (20° C., 9 months): 0.12 % by weight
α-Lipoic acid content of the blend (20° C., 12 months): 0.1 % by weight
α-Lipoic acid content of the blend (40° C., 1 month): 0.16 % by weight
α-Lipoic acid content of the blend (40° C., 2 months): 0.11 % by weight
α-Lipoic acid content of the blend (40° C., 3 months): 0.09 % by weight
α-Lipoic acid content of the blend (40° C., 6 months): 0.06 % by weight
α-Lipoic acid content of the blend (40° C., 9 months): 0.03 % by weight
α-Lipoic acid content of the blend (40° C., 12 months): 0 % by weight
Structure (SMILES): O=C(O)CCCCC1CCSS1 (racemic) [ALA, 1,2-dithiacyclopentane-3-valeric acid]
